Measured values published in patent publication US10864192B2, “Compositions and methods for inhibiting brain trauma-induced neurodegeneration and related conditions” (priority 2016, dated 2020).
pIC50: −log10 of the molar value. Several values for one entry are separate records, joined by “and”; a condition that tells them apart may be missing. Equal values may be shown once. Read-outs that look alike come from different tables or passages of the source.

Experiments:
[1] = Plasma concentrations of phenserine and its metabolites in wistar rat plasma; settings: in vivo; for concentration at 1 h: Hour 1; for concentration at 2 h: Hour 2
[2] = Plasma concentrations of phenserine and its metabolites in human plasma; assay type: in vivo; settings: both sexes, in vivo; for concentration at 1 h: Hour 1; for concentration at 2 h: Hour 2; for concentration at 3 h: Hour 3; for concentration at 4 h: Hour 4
Description: The relationship between pharmacokinetic and pharmacodynamics evaluated in FIG. 15 was evaluated in aged volunteers. A total of 32 subjects (60-80 years of age, 11 males/21 females) were screened and enrolled. All participants provided informed consent, the conduct of the study were approved and overseen by the local Review IRB.
For pharmacokinetic (blood concentrations of primary drug and select metabolites) a dose […] additionally was evaluated.
These were centrifuged within 15 min of collection, and stored in a freezer at −70° C. freezer in marked polypropylene tubes until analysis. Phenserine levels were quantified by liquid chromatography/mass spectrometry (LC/MS/MS). In brief, analyses were undertaken on Perkin-Elmer (PE, Norwalk, USA) high performance liquid chromatographic (HPLC) instrumentation. Compound separation was performed on a Phenomenex LUNA C18 column (5 μM, 2.0 mm×150 mm; Torrance, USA), with a Phenomenex guard column (2 mm×30 mm). The mobile phase was 60% acetonitrile (HPLC grade) plus 40% ammonium acetate (v/v) with a flow rate of 0.4 mL/min. […] Thereafter, 2 mL of tert-butyl methyl ether was added and the sample was mixed and flash frozen. The organic layer was decanted, dried under a stream of nitrogen and reconstituted into 250 μL of mobile phase. Of this, a 60 μL sample was then injected into the HPLC.

[3] = in vivo
[4] = Plasma concentrations of phenserine and its metabolites in beagle dog plasma; assay type: in vivo; settings: beagle, in vivo; for concentration at 1 h: Hour 1; for concentration at 2 h: Hour 2; for concentration at 3 h: Hour 3; for concentration at 4 h: Hour 4
clinical = settings: for t1/2 /Elim / Estimated Brain CMax: 15 mg immediate release dose; for Estimated Brain CMax: from plasma CMax and brain:plasma partitioning; for Cmax: human, in vivo, 15 mg
Excerpt: FIGS. 33-34 depict two graphs from an Excel spreadsheet. FIG. 33 is a linear plot of plasma level vs time and FIG. 34 is a semi-log plot of plasma conc. vs time.

[5] = Estimated EC50/IC50 of phenserine and metabolites for pharmacological activity in brain
SH-SY5Y cells = experiment: Cell proliferation of SH-SY5Y cells (MTS assay); assay type: cell-based, human; settings: 30 uM, 24 hr
Description: SHSYSY cells were exposed for 24 hr to 30 uM concentration of (−)- and (+)-phenserine. After 24 hr cell proliferation was determined by MTS assay. *P,0.05, **p,0.01, and ***p,0.001 compared to control samples without drug.

SH-SY5Y neuronal cells = experiment: Phenserine plus anti-inflammatory drug, oxidative stress and trophic effects in SH-SY5Y cells (MTS assay)
Description: Human SH-SY5Y neuronal cells were seeded in 96-well plates at a density of 1×10^5 cells per well and allowed to grow for 24 hr. […] […] At 18 hr thereafter a MTS assay was performed per the manufacturers protocol (Abcam, Cambridge, Mass.) to measure cell viability.
For example, instead of aspirin (as shown in FIG. 3A), an NSAID, naproxen, was used under the same experimental conditions at concentrations in FIGS. 3B-3D.

Row | Compound | concentration at 1 h [1] | concentration at 2 h [1] | concentration at 1 h [2] | concentration at 2 h [2] | concentration at 3 h [2] | concentration at 4 h [2] | brain:blood partition [3] | concentration at 1 h [4] | concentration at 2 h [4] | concentration at 3 h [4] | concentration at 4 h [4] | t1/2 /Elim (clinical) | Estimated Brain CMax (clinical) | Cmax (clinical) | Estimated EC50 [5] | also measured
1 | CN1c2ccc(OC(=O)Nc3ccccc3)cc2[C@]2(C)CCN[C@H]12 [N1-nor-phenserine, (−)-N1-norphenylcarbamoyleseroline] | 37.6 ng/mL | 26.2 ng/mL | 1.56 ng/mL | 1.19 ng/mL | 0.8 ng/mL | 0.53 ng/mL | approx. 4:1 | 86.1 ng/mL | 50.3 ng/mL | 86.7 ng/mL | 41.9 ng/mL | 1.90 to 1.96 h | 2.15 ng/ml and 6.6 nM | 1.56 ng/mL and 4.8 nM | 24-100 NanoMolar | expected plasma levels (clinical; targeted 30 mg/d or 60 mg/d in sustained release formulation): > 1.0 ng/mL
2 | C[C@@]12CCN[C@@H]1Nc1ccc(OC(=O)Nc3ccccc3)cc12 [N1,N8-bisnor-phenserine, (−)-N1, N8-bisnorphenylcarbamoyleseroline] | 536 ng/mL | 539 ng/mL | 22.5 ng/mL | 14.5 ng/mL | 7.62 ng/mL | 6.55 ng/mL | approx. 1.3:1 | 235 ng/mL | 220 ng/mL | 428 ng/mL | 351 ng/mL | 0.53 to 1.29 h | – | 22.5 ng/mL and 73.3 nM | 100 NanoMolar | Estimated Brain CMax (clinical; listed as N-1, N-8 BisNor P): 28.8 ng/ml and 95.0 nM; pIC50 ([5]; BNPCE IC50+/−25, read-out: IC50 (estimated)): 7.66; pIC50 ([5]; pharmacological activity in brain, read-out: estimated IC50): 7.00
3 | CN1CC[C@]2(C)c3cc(OC(=O)Nc4ccccc4)ccc3N(C)[C@H]12 [(+)-phenserine, reference compound] | – | – | – | – | – | – | – | – | – | – | – | – | – | – | – | cell proliferation (neurotrophic actions) (SH-SY5Y cells): increasing cellular proliferation
4 | CC(=O)Oc1ccccc1C(=O)O [ASA, acetylsalicylic acid, reference compound] | – | – | – | – | – | – | – | – | – | – | – | – | – | – | – | oxidative stress-induced cellular death (cell viability) (SH-SY5Y neuronal cells; ASA 10^−5 M, (−)-Phen 10^−7 M, 10^−6 M, H2O2 50 μM, 18 hr): no activity
5 | CN1CC[C@@]2(C)c3cc(OC(=O)Nc4ccccc4)ccc3N[C@@H]12 [N8-nor-phensereine, (−)-N8-norphenylcarbamoyleseroline] | 96.4 ng/mL | 69.2 ng/mL | 11.2 ng/mL | 7.38 ng/mL | 4.28 ng/mL | 3.61 ng/mL | approx. 6:1 | 33.4 ng/mL | 28.2 ng/mL | 9.06 ng/mL | 7.88 ng/mL | 1.51 to 1.76 h | 17.7 ng/ml and 52.9 nM | 11.2 ng/mL and 34.8 nM | 24-100 NanoMolar | –
6 | COc1ccc2cc([C@H](C)C(=O)O)ccc2c1 [naproxen, reference compound] | – | – | – | – | – | – | – | – | – | – | – | – | – | – | – | tolerability by SH-SY5Y neuronal cells (SH-SY5Y neuronal cells; 10 nM to 100,000 nM): well tolerated; trophic actions (SH-SY5Y neuronal cells; 10 nM to 100,000 nM): does not show activity
